Source: US8536187B2 (Gilead Sciences, Inc., priority 2008, dated 2013)

Experiments:
[1] = test system: HCV replicon in human hepatoma Huh-7 cell line; test: Anti-HCV replicon assay, EC50 (luciferase luminescence); type: cell-based; settings: Hepatitis C virus, Huh-7, 72 h
Summary of the method: (§1)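 Cytotoxicity (CC50) read by CellTiter-Glo luminescence after 10 min, and antiviral EC50 by luciferase signal after 30 min lysis with substrate, both at room temperature. Preceding step: 3-day exposure of 6000 Huh-7 HCV replicon cells per well to compound dilution series at 37° C, 5% CO2, in 0.5% DMSO.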

[2] = CC50 assay (CellTiter-Glo) in Huh-7 HCV replicon cells; type: cell-based; settings: human, Table 2, 3 days incubation
Summary of the method: as §1

SMILES	EC50 [1] [nM]	CC50 at 3 days [2] [nM]
CS(=O)(=O)c1cccc(-c2ccc3nc(NCc4ccc(-n5ccnc5)cc4)nc(NCC(F)(F)F)c3n2)c1 [Example 193, N^2-(4-(1H-imidazol-1-yl)benzyl)-6-(3-(methylsulfonyl)phenyl)-N^4-(2,2,2-trifluoroethyl) pyrido[3,2-d]pyrimidine-2,4-diamine]	< 100	> 10000
CS(=O)(=O)c1cccc(-c2ccc3nc(NCc4ccc(-n5cncn5)cc4)nc(O[C@@H]4C[C@@H]5C[C@@H]5C4)c3n2)c1 [Example 194, N-(4-(1H-1,2,4-triazol-1-yl)benzyl)-4-((1S,3r,5R)-bicyclo[3.1.0]hexan-3-yloxy)-6-(3-(methylsulfonyl)phenyl) pyrido[3,2-d]pyrimidin-2-amine]	< 100	1000 to 10000
CS(=O)(=O)c1cc(-c2ccc3nc(NCc4ccc(-n5cncn5)cc4)nc(O[C@@H]4C[C@@H]5C[C@@H]5C4)c3n2)ccc1OC(F)F [Example 195, N-(4-(1H-1,2,4-triazol-1-yl)benzyl)-4-((1S,3r,5R)-bicyclo[3.1.0]hexan-3-yloxy)-6-(4-(difluoromethoxy)-3-(methylsulfonyl)phenyl)pyrido [3,2-d]pyrimidin-2-amine]	< 100	1000 to 10000
CS(=O)(=O)c1cccc(-c2ccc3nc(NCc4ccc(-n5cncn5)cc4)nc(NCC(F)(F)Cl)c3n2)c1 [Example 196, N^2-(4-(1H-1,2,4-triazol-1-yl)benzyl)-N^4-(2-chloro-2,2-difluoroethyl)-6-(3-(methylsulfonyl)phenyl)pyrido [3,2-d]pyrimidine-2,4-diamine]	< 100	> 10000
CC(C)(C)Oc1nc(NCc2ccc(-n3cncn3)cc2)nc2ccc(-c3cccc(S(C)(=O)=O)c3)nc12 [Example 197, N-(4-(1H-1,2,4-triazol-1-yl)benzyl)-4-tert-butoxy-6-(3-(methylsulfonyl)phenyl)pyrido [3,2-d]pyrimidin-2-amine]	< 100	> 10000
CC(C)Oc1nc(NCc2ccc(-n3cncn3)cc2)nc2ccc(-c3cccc(S(C)(=O)=O)c3)nc12 [Example 198, N-(4-(1H-1,2,4-triazol-1-yl)benzyl)-4-isopropoxy-6-(3-(methylsulfonyl)phenyl)pyrido [3,2-d]pyrimidin-2-amine]	< 100	> 10000
CC(C)Oc1nc(NCc2ccc(-n3cncn3)cc2)nc2ccc(-c3ccc(OC(F)F)c(S(C)(=O)=O)c3)nc12 [Example 199, N-(4-(1H-1,2,4-triazol-1-yl)benzyl)-6-(4-(difluoromethoxy)-3-(methylsulfonyl)phenyl)-4-isopropoxypyrido[3,2-d] pyrimidin-2-amine]	< 100	> 10000
C[C@@H](Nc1nc(OC2CCC2)c2nc(-c3cccc(S(C)(=O)=O)c3)ccc2n1)c1ccc(S(N)(=O)=O)cc1 [Example 200, 4-((R)-1-(4-cyclobutoxy-6-(3-(methylsulfonyl)phenyl)pyrido [3,2-d]pyrimidin-2-ylamino)ethyl)benzenesulfonamide]	100 to 250	> 10000
CS(=O)(=O)c1cccc(-c2ccc3nc(NCc4ccc(-n5cncn5)cc4)nc(OC4CCC4)c3n2)c1 [Example 202, N-(4-(1H-1,2,4-triazol-1-yl)benzyl)-4-cyclobutoxy-6-(3-(methylsulfonyl)phenyl)pyrido [3,2-d]pyrimidin-2-amine]	< 100	> 10000
Cc1nc(C)n(-c2ccc(CNc3nc(OC4(C)CC4)c4nc(-c5cccc(S(C)(=O)=O)c5)ccc4n3)cc2)n1 [Example 203, N-(4-(3,5-dimethyl-1H-1,2,4-triazol-1-yl)benzyl)-4-(1-methylcyclopropoxy)-6-(3-(methylsulfonyl)phenyl)pyrido [3,2-d]pyrimidin-2-amine]	< 100	> 10000
CS(=O)(=O)c1cc(-c2ccc3nc(NCc4ccc(-n5cncn5)cc4)nc(OC4CCC4)c3n2)ccc1OC(F)F [Example 204, N-(4-(1H-1,2,4-triazol-1-yl)benzyl)-4-cyclobutoxy-6-(4-(difluoromethoxy)-3-(methylsulfonyl)phenyl)pyrido [3,2-d]pyrimidin-2-amine]	< 100	1000 to 10000
Cc1nc(C)n(-c2ccc(CNc3nc(OC4(C)CC4)c4nc(-c5ccc(OC(F)F)c(S(C)(=O)=O)c5)ccc4n3)cc2)n1 [Example 205, N-(4-(3,5-dimethyl-1H-1,2,4-triazol-1-yl)benzyl)-6-(4-(difluoromethoxy)-3-(methylsulfonyl)phenyl)-4-(1-methylcyclopropoxy)pyrido [3,2-d]pyrimidin-2-amine]	< 100	> 10000
C[C@H](Cn1cncn1)Nc1nc(NCC(F)(F)F)c2nc(-c3ccc(OC(F)F)c(S(C)(=O)=O)c3)ccc2n1 [Example 206, N^2-((R)-1-(1H-1,2,4-triazol-1-yl)propan-2-yl)-6-(4-(difluoromethoxy)-3-(methylsulfonyl)phenyl)-N^4-(2,2,2-trifluoroethyl) pyrido[3,2-d]pyrimidine-2,4-diamine]	250 to 2000	> 10000
COc1ccc(-c2ccc3nc(NCc4ccc(S(N)(=O)=O)cc4)nc(NCC(F)(F)F)c3n2)cc1S(N)(=O)=O [Example 225, 4-((6-(4-methoxy-3-(aminosulfonyl)phenyl)-4-(2,2,2-trifluoroethylamino)pyrido[3,2-d]pyrimidin-2-ylamino)methyl)benzene-sulfonamide]	< 100	> 10000
COc1ccc(-c2ccc3nc(NCc4ccc(S(N)(=O)=O)cc4)nc(NCC(F)(F)F)c3n2)cc1S(=O)(=O)N1CCOCC1 [Example 227, 4-((6-(4-methoxy-3-(morpholinosulfonyl)phenyl)-4-(2,2,2-trifluoroethylamino)pyrido[3,2-d]pyrimidin-2-ylamino)methyl)benzene-sulfonamide]	< 100	1000 to 10000
COc1ccc(-c2ccc3nc(NCc4ccc(S(N)(=O)=O)cc4)nc(NCC(F)(F)F)c3n2)cc1C(F)(F)F [Example 228, 4-((6-(4-methoxy-3-(trifluoromethyl)phenyl)-4-(2,2,2-trifluoroethylamino)pyrido[3,2-d]pyrimidin-2-ylamino)methyl)benzene-sulfonamide]	250 to 2000	> 10000
CCOc1ccc(-c2ccc3nc(NCc4ccc(-n5cncn5)cc4)nc(NCC(F)(F)F)c3n2)cn1 [Example 229, N^2-(4-(1H-1,2,4-triazol-1-yl)benzyl)-6-(6-ethoxypyridin-3-yl)-N^4-(2,2,2-trifluoroethyl) pyrido[3,2-d]pyrimidine-2,4-diamine]	< 100	> 10000
CCOc1ccc(-c2ccc3nc(NCc4cccc(S(C)(=O)=O)c4)nc(NCC(F)(F)F)c3n2)cn1 [Example 230, N^2-(3-(methylsulfonyl)benzyl)-6-(6-ethoxypyridin-3-yl)-N^4-(2,2,2-trifluoroethyl)pyrido [3,2-d]pyrimidine-2,4-diamine]	< 100	> 10000
CCOc1ccc(-c2ccc3nc(N[C@H](C)Cn4cncn4)nc(NCC(F)(F)F)c3n2)cn1 [Example 232, N^2-((R)-1-(1H-1,2,4-triazol-1-yl)propan-2-yl)-6-(6-ethoxypyridin-3-yl)-N^4-(2,2,2-trifluoroethyl)pyrido[3,2-d] pyrimidine-2,4-diamine]	< 100	1000 to 10000
CCOc1ccc(-c2ccc3nc(NCc4cc(Cl)cc(S(N)(=O)=O)c4)nc(NCC(F)(F)F)c3n2)cn1 [Example 233, 3-chloro-5-((6-(6-ethoxypyridin-3-yl)-4-(2,2,2-trifluoroethylamino)pyrido [3,2-d]pyrimidin-2-ylamino)methyl)benzenesulfonamide]	< 100	1000 to 10000
COc1ccc(-c2ccc3nc(NCc4ccc(F)c(F)c4)nc(NCC(F)(F)F)c3n2)cc1S(N)(=O)=O [Example 234, 5-(2-(3,4-difluorobenzylamino)-4-(2,2,2-trifluoroethylamino)pyrido[3,2-d]pyrimidin-6-yl)-2-methoxybenzenesulfonamide]	< 100	> 10000
COc1ccc(-c2ccc3nc(NC(C)c4cc(F)cc(F)c4)nc(NCC(F)(F)F)c3n2)cc1S(N)(=O)=O (stereo not shown) [Example 235, 5-(2-(1-(3,5-difluorophenyl)ethylamino)-4-(2,2,2-trifluoroethylamino)pyrido [3,2-d]pyrimidin-6-yl)-2-methoxybenzenesulfonamide]	100 to 250	1000 to 10000
COc1ccc(-c2ccc3nc(NCc4ccc(-n5cccn5)cc4)nc(NCC(F)(F)F)c3n2)cc1S(N)(=O)=O [Example 236, 5-(2-(4-(1H-pyrazol-1-yl)benzylamino)-4-(2,2,2-trifluoroethylamino)pyrido [3,2-d]pyrimidin-6-yl)-2-methoxybenzenesulfonamide]	< 100	1000 to 10000
COc1ccc(-c2ccc3nc(NCc4ccc(-n5cncn5)cc4)nc(NCC(F)(F)F)c3n2)cc1S(N)(=O)=O [Example 237, 5-(2-(4-(1H-1,2,4-triazol-1-yl)benzylamino)-4-(2,2,2-trifluoroethylamino)pyrido [3,2-d]pyrimidin-6-yl)-2-methoxybenzenesulfonamide]	< 100	> 10000
COc1ccc(-c2ccc3nc(NC(C)C#CC4CC4)nc(NCC(F)(F)F)c3n2)cc1S(N)(=O)=O (stereo not shown) [Example 239, 5-(2-(4-cyclopropylbut-3-yn-2-ylamino)-4-(2,2,2-trifluoroethylamino)pyrido [3,2-d]pyrimidin-6-yl)-2-methoxybenzenesulfonamide]	< 100	1000 to 10000
CC(C)Oc1ccc(-c2ccc3nc(NCc4ccc(-n5cncn5)cc4)nc(NCC(F)(F)F)c3n2)cn1 [Example 240, N^2-(4-(1H-1,2,4-triazol-1-yl)benzyl)-6-(6-isopropoxy-pyridin-3-yl)-N^4-(2,2,2-trifluoroethyl)pyrido[3,2-d] pyrimidine-2,4-diamine]	< 100	> 10000
